Measured values published in the supplement of paper PMC10307832.

What was measured:
Test in all cases: relative viability (nuclei count vs DMSO), 5 days (fraction); higher = more cells survive
Dovitinib = compound: CN1CCN(c2ccc3nc(-c4c(N)c5c(F)cccc5[nH]c4=O)[nH]c3c2)CC1 [Dovitinib]
Summary of the method: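 For viability, nuclei in each treated well were divided by nuclei in vehicle wells and the median across plates was taken. Lung cancer cell lines in 1536-well plates were pinned with five library-drug doses (not always all listed) spaced by √10, cultured 5 days without medium change, and imaged at 4× after Hoechst staining, with plates passing only at control CV below 25% and at least one doubling.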

Dovitinib + Foretinib = compound: CN1CCN(c2ccc3nc(-c4c(N)c5c(F)cccc5[nH]c4=O)[nH]c3c2)CC1 [Dovitinib] + COc1cc2c(Oc3ccc(NC(=O)C4(C(=O)Nc5ccc(F)cc5)CC4)cc3F)ccnc2cc1OCCCN1CCOCC1 [Foretinib] (partner 0.25 µM)
Summary of the method: (§1)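 Lung cancer cell lines in 1536-well plates were dosed by pin tool the day after seeding, either with one drug alone or with a fixed anchor-drug dose plus five library-drug doses (not always all listed) in √10 steps. After 5 days, cells were fixed and their nuclei stained in one step (final 0.05% Triton X-100, 1% formaldehyde, 1 ug/ml Hoechst), then counted on 4× images. Relative viability is the nuclei count in treated wells divided by that in vehicle wells. Values are medians of duplicate plates.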

Dovitinib + Palbociclib = compound: CN1CCN(c2ccc3nc(-c4c(N)c5c(F)cccc5[nH]c4=O)[nH]c3c2)CC1 [Dovitinib] + CC(=O)c1c(C)c2cnc(Nc3ccc(N4CCNCC4)cn3)nc2n(C2CCCC2)c1=O [Palbociclib] (partner 0.5 µM)
Summary of the method: as §1

Dovitinib + OSI-027 = compound: CN1CCN(c2ccc3nc(-c4c(N)c5c(F)cccc5[nH]c4=O)[nH]c3c2)CC1 [Dovitinib] + COc1cccc2cc(-c3nc([C@H]4CC[C@H](C(=O)O)CC4)n4ncnc(N)c34)[nH]c12 [OSI-027] (partner 0.5 µM)
Summary of the method: as §1

Cell Line | relative viability (Dovitinib; 0.02 µM) | relative viability (Dovitinib; 0.06325 µM) | relative viability (Dovitinib; 0.2 µM) | relative viability (Dovitinib; 0.6325 µM) | relative viability (Dovitinib; 2 µM) | relative viability (Dovitinib + Foretinib; first compound 0.02 µM) | relative viability (Dovitinib + Foretinib; first compound 0.06325 µM) | relative viability (Dovitinib + Foretinib; first compound 0.2 µM) | relative viability (Dovitinib + Foretinib; first compound 0.6325 µM) | relative viability (Dovitinib + Foretinib; first compound 2 µM) | relative viability (Dovitinib + Palbociclib; first compound 0.02 µM) | relative viability (Dovitinib + Palbociclib; first compound 0.06325 µM) | relative viability (Dovitinib + Palbociclib; first compound 0.2 µM) | relative viability (Dovitinib + Palbociclib; first compound 0.6325 µM) | relative viability (Dovitinib + Palbociclib; first compound 2 µM) | relative viability (Dovitinib + OSI-027; first compound 0.02 µM) | relative viability (Dovitinib + OSI-027; first compound 0.06325 µM) | relative viability (Dovitinib + OSI-027; first compound 0.2 µM) | relative viability (Dovitinib + OSI-027; first compound 0.6325 µM) | relative viability (Dovitinib + OSI-027; first compound 2 µM)
PC-14 | 1 | 1.01 | 1.03 | 1.03 | 1.04 | 0.976 | 0.91 | 0.945 | 0.945 | 0.914 | 0.461 | 0.622 | 0.572 | 0.467 | 0.537 | 0.827 | 0.804 | 1.02 | 0.751 | 0.933
RERF-LC-KJ | 0.964 | 1.01 | 1.07 | 0.95 | 0.954 | 0.832 | 0.905 | 0.96 | 0.886 | 0.858 | 1.09 | 1 | 1.08 | 1.1 | 1.01 | 0.639 | 0.623 | 0.653 | 0.56 | 0.574
SK-LU-1 | 0.991 | 1.09 | 1.08 | 1.08 | 1.11 | 0.875 | 0.904 | 0.789 | 0.773 | 0.845 | 0.39 | 0.372 | 0.358 | 0.481 | 0.38 | 0.3 | 0.386 | 0.359 | 0.388 | 0.316
SK-MES-1 | 0.988 | 1.01 | 1.06 | 1.01 | 1.03 | 0.895 | 0.993 | 0.927 | 0.86 | 0.919 | 0.35 | 0.378 | 0.306 | 0.37 | 0.374 | 0.56 | 0.591 | 0.605 | 0.601 | 0.612
SW 1573 | 1.05 | 0.992 | 1.01 | 0.947 | 1.07 | 0.837 | 0.913 | 0.877 | 0.88 | 0.885 | 0.402 | 0.421 | 0.435 | 0.348 | 0.386 | 0.715 | 0.641 | 0.676 | 0.455 | 0.725
UMC-11 | 0.959 | 0.941 | 0.992 | 0.981 | 0.939 | 1.05 | 1.04 | 1.01 | 1 | 1.05 | 0.334 | 0.34 | 0.346 | 0.343 | 0.348 | 0.467 | 0.39 | 0.523 | 0.47 | 0.497
